Laboratory results: article PMC7956753, “Development of ^18F-Labeled Radiotracers for PET Imaging of the Adenosine A2A Receptor: Synthesis, Radiolabeling and Preliminary Biological Evaluation” (International Journal of Molecular Sciences, 2021)
Several values for one entry are separate records, joined by “and”; a condition that tells them apart may be missing. Equal entries are not always repeated. Where two headings read alike, the source gives them in different places.

Assays:
[1] = target: human A2AR (Homo sapiens, UniProt P29274); assay: In vitro radioligand binding assay with [3H]ZM241385 on membranes of CHO-K1 cells stably transfected with human A2AR; details: for Ki: in-house, mean ± standard deviation (n ≥ 3) or mean (n = 2, single values in brackets), Cheng-Prusoff
Sequence of human A2AR (P29274 whole entry): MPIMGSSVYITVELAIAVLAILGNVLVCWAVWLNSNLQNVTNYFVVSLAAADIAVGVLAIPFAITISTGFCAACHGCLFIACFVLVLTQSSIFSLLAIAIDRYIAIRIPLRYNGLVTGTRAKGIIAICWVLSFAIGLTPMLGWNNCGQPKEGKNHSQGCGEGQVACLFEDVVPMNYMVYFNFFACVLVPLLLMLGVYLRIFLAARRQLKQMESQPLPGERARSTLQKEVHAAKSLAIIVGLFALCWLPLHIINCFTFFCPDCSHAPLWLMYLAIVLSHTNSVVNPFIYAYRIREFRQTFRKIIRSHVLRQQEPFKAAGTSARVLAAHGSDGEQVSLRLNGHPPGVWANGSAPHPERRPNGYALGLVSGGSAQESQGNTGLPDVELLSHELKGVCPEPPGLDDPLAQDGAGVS

[2] = target: T1, human A1R (Homo sapiens, UniProt P30542); assay: In vitro radioligand binding assay with [3H]DPCPX on membranes of CHO-K1 cells stably transfected with human A1R
T1 sequence (P30542 1-326): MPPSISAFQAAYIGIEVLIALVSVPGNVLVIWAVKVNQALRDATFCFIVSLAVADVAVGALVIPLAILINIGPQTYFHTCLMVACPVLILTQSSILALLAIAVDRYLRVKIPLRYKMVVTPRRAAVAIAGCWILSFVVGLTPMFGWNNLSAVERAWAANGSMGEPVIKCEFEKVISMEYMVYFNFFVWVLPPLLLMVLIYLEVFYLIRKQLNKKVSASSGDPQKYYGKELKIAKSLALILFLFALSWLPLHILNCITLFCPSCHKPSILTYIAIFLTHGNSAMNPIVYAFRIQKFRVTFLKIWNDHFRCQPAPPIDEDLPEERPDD

[3] = read-out: Ki(hA1R), in-house, mean ± standard deviation (n ≥ 3) or mean (n = 2, single values in brackets), Cheng-Prusoff

## Nc1nc(-c2ccco2)c2cnn(Cc3ccc(F)cc3Br)c2n1 [PPY9, 1-(2-Bromo-4-fluorobenzyl)-4-(furan-2-yl)-1H-pyrazolo[3,4-d]pyrimidin-6-amine]
[1]; Ki(hA2AR)
  Ki: 34.1 nM

## Nc1nc(-c2ccco2)c2cnn(Cc3ccnc(F)c3)c2n1 [PPY7, 1-((2-Fluoropyridin-4-yl)methyl)-4-(furan-2-yl)-1H-pyrazolo[3,4-d]pyrimidin-6-amine]
[2]
  Ki: 2880 nM
[1]; Ki(hA2AR)
  Ki: 161 ± 19 nM

## 2-((6-Amino-4-(furan-2-yl)-1H-pyrazolo[3,4-d]pyrimidin-1-yl)methyl)-5-fluoro-benzonitrile [PPY12]
[2]; [3]
  Ki: 810 nM
[1]; read-out: Ki(hA2AR)
  Ki: 66.7 nM

## Nc1nc(-c2ccco2)c2cnn(Cc3cccc(Cl)c3)c2n1 [PPY, reference compound]
[1]; read-out: Ki(hA2AR)
  Ki: 1 ± 0.09 nM

## Nc1nc(-c2ccco2)c2cnn(Cc3ccc(Br)cc3F)c2n1 [PPY8, 1-(4-Bromo-2-fluorobenzyl)-4-(furan-2-yl)-1H-pyrazolo[3,4-d]pyrimidin-6-amine]
[2]
  Ki: 31.3 ± 15.5 nM
[1]; Ki(hA2AR)
  Ki: 0.93 ± 0.1 nM
[1]; additional bromine
  increase of A2AR binding affinity compared with PPY2: 2 fold

## Nc1nc(-c2ccco2)c2cnn(Cc3cc(F)cc(Br)c3)c2n1 [PPY10, 1-(3-Bromo-5-fluorobenzyl)-4-(furan-2-yl)-1H-pyrazolo[3,4-d]pyrimidin-6-amine]
[2]
  Ki: 160 nM
[1]; Ki(hA2AR)
  Ki: 14.2 nM

## 1-((6-Fluoropyridin-2-yl)methyl)-4-(furan-2-yl)-1H-pyrazolo[3,4-d]pyrimidin-6-amine [PPY6]
[2]; [3]
  Ki: 566 nM
[1]; read-out: Ki(hA2AR)
  Ki: 27.1 ± 2.6 nM

## Nc1nc(-c2ccco2)c2cnn(Cc3ccccc3F)c2n1 [PPY2, 1-(2-Fluorobenzyl)-4-(furan-2-yl)-1H-pyrazolo[3,4-d]pyrimidin-6-amine]
[1]; Ki(hA2AR)
  Ki: 2.13 ± 0.42 nM
[1]; ortho- vs para-fluorine
  increase of A2AR binding affinity compared with PPY1: 2.5 fold
[1]; read-out: Ki(hA2AR)
  Ki: 2.1 nM

## Nc1nc(-c2ccco2)c2cnn(Cc3ccccc3)c2n1 [PPY22, 1-Benzyl-4-(furan-2-yl)-1H-pyrazolo[3,4-d]pyrimidin-6-amine]
[1]; Ki(hA2AR)
  Ki: 1.68 ± 0.14 nM

## N#Cc1cccc(F)c1Cn1ncc2c(-c3ccco3)nc(N)nc21 [PPY15, 2-((6-Amino-4-(furan-2-yl)-1H-pyrazolo[3,4-d]pyrimidin-1-yl)methyl)-3-fluoro-benzonitrile]
[2]
  Ki: 470 nM
[1]; Ki(hA2AR)
  Ki: 12.3 nM

## (6-Amino-4-(furan-2-yl)-1H-pyrazolo[3,4-d]pyrimidin-1-yl)(2-fluorophenyl)-methanone [PPY20]
[2]; [3]
  Ki: 1420 nM
[1]; read-out: Ki(hA2AR)
  Ki: 275 nM

## Nc1nc(-c2ccco2)c2cnn(Cc3cccc(CCF)c3)c2n1 [PPY16, 1-(3-(2-Fluoroethyl)benzyl)-4-(furan-2-yl)-1H-yrazolo[3,4-d]pyrimidin-6-amine]
[2]
  Ki: 69.2 ± 32.8 nM
[1]; Ki(hA2AR)
  Ki: 1.63 ± 0.22 nM

## 1-((6-Fluoropyridin-3-yl)methyl)-4-(furan-2-yl)-1H-pyrazolo[3,4-d]pyrimidin-6-amine [PPY5]
[2]; [3]
  Ki: 689 nM
[1]; read-out: Ki(hA2AR)
  Ki: 25.7 ± 0.9 nM

## N#Cc1cc(F)cc(Cn2ncc3c(-c4ccco4)nc(N)nc32)c1 [PPY14, 3-((6-Amino-4-(furan-2-yl)-1H-pyrazolo[3,4-d]pyrimidin-1-yl)methyl)-5-fluoro-benzonitrile]
[2]
  Ki: 954 nM
[1]; Ki(hA2AR)
  Ki: 291 nM

## Nc1nc(-c2ccco2)c2cnn(Cc3cccnc3F)c2n1 [PPY4, 1-((2-Fluoropyridin-3-yl)methyl)-4-(furan-2-yl)-1H-pyrazolo[3,4-d]pyrimidin-6-amine]
[2]
  Ki: 822 nM
[1]; Ki(hA2AR)
  Ki: 47.8 ± 4.8 nM

## Nc1nc(-c2ccco2)c2cnn(C(=O)c3ccccc3F)c2n1 [PPY21, (6-Amino-4-(furan-2-yl)-1H-pyrazolo[3,4-d]pyrimidin-1-yl)(2-fluorophenyl)-methanone]
[2]
  Ki: 1550 nM
[1]; Ki(hA2AR)
  Ki: 283 nM

## Nc1nc(-c2ccco2)c2cnn(Cc3cccc(F)c3)c2n1 [PPY3, 1-(3-Fluorobenzyl)-4-(furan-2-yl)-1H-pyrazolo[3,4-d]pyrimidin-6-amine]
[2]
  Ki: 132 nM
[1]; Ki(hA2AR)
  Ki: 3.6 ± 1.29 nM
[1]; chlorine (PPY) exchanged for fluorine
  decrease of A2AR binding affinity compared with PPY: 3 fold

## Nc1nc(-c2ccco2)c2cnn(Cc3ccc(F)cc3)c2n1 [PPY1, 1-(4-Fluorobenzyl)-4-(furan-2-yl)-1H-pyrazolo[3,4-d]pyrimidin-6-amine]
[2]
  Ki: 220 nM
[1]; Ki(hA2AR)
  Ki: 5.3 nM and 5.29 nM

## Nc1nc(-c2ccco2)c2cnn(CCc3ccccc3F)c2n1 [PPY19, 1-(2-Fluorophenethyl)-4-(furan-2-yl)-1H-pyrazolo[3,4-d]pyrimidin-6-amine]
[2]
  Ki: 245 nM
[1]; Ki(hA2AR)
  Ki: 107 nM

## Nc1nc(-c2ccco2)c2cnn(Cc3cccc(OCCCF)c3)c2n1 [PPY18, 1-(3-(3-Fluoropropoxy)benzyl)-4-(furan-2-yl)-1H-pyrazolo[3,4-d]pyrimidin-6-amine]
[1]; Ki(hA2AR)
  Ki: 76.8 ± 12.9 nM

## Nc1nc(-c2ccco2)c2cnn(Cc3cccc(OCCF)c3)c2n1 [PPY17, 1-(3-(2-Fluoroethoxy)benzyl)-4-(furan-2-yl)-1H-pyrazolo[3,4-d]pyrimidin-6-amine]
[2]
  Ki: 215 ± 38 nM
[1]; Ki(hA2AR)
  Ki: 4.5 ± 0.99 nM

## Nc1nc(-c2ccco2)c2cnn(Cc3c(F)cccc3Br)c2n1 [PPY11, 1-(2-Bromo-6-fluorobenzyl)-4-(furan-2-yl)-1H-pyrazolo[3,4-d]pyrimidin-6-amine]
[2]
  Ki: 162 ± 22 nM
[1]; Ki(hA2AR)
  Ki: 2.35 ± 0.3 nM
